# Biological target: hDGAT2 (Homo sapiens (Human), UniProt Q96PD7)
# Assay: DGAT2 Enzymatic Activity Assay (triolein formation, LC/MS/MS)
# Format: biochemical
# Conditions: Sf-9 membrane prep expressing hDGAT2; 25 μM diolein, 10 μM oleoyl-CoA; room temperature; read-out: IC50 values for inhibition of DGAT2
# Description: In Vitro DGAT2 ASSAYS and Determination of IC50 Values for DGAT2 Inhibitors
# Insect Cell Expression and Membrane Preparation
# Sf-9 insect cells were maintained in Grace's insect cell culture medium with 10% heated-inactivated fetal bovine serum, 1% Pluronic F-68 and 0.14 μg/ml Kanamycine sulfate in Erlenmeyer flasks at 28° C. in a shaker incubator. After infection with untagged hDGAT2 baculovirus at multiplicity of infection (MOI) 0.1 for 48 hours, cells were harvested. Cell pellets were suspended in buffer containing 10 mM Tris-HCl (pH 7.5), 1 mM EDTA (pH 8.0), 250 mM sucrose and Complete Protease Inhibitor Cocktail (Roche Diagnostics Corp., Indianapolis, Ill.), and sonicated on ice. Membrane fractions were isolated by ultracentrifugation (100,000× g pellet), resuspended in the same buffer, and frozen (−80° C.) for later use. The protein concentration was determined with the BCA Protein Assay kit (Pierce Biotechnology Inc., Rockford, Ill.). Expression of protein levels was analyzed by immunoblotting with goat polyclonal DGAT2 antibody C-15 and donkey anti-goat IgG HRP (Santa Cruz Biotechnology, Inc., Santa Cruz, Calif.) followed by detection with ECL reagent (GE Healthcare, Piscataway, N.J.).
# LC/MS/MS analyses were performed using Thermal Fisher's LX4-TSQ Vantage system. This system consists of an Agilent binary high-performance liquid chromatography (HPLC) pumps and a TSQ Vantage triple quadrupole MS/MS instrument. For each sample, 2 μL samples from the top organic layer of in-plate liquid-liquid extraction were injected onto a Thermo Betabasic C4 column (2.1 mm×20 mm, 5 μm particle size). The samples were then eluted using the following conditions; mobile phase: methanol/water with 0.1% ammonium format=92/8 (v/v), flow rate: 1 mL/min, temperature: 25° C. Data was acquired in positive mode using a heated electrospray ionization (HESI) interface. The operational parameters for the TSQ Vantage MS/MS instrument were a spray voltage of 3000 V, capillary temperature of 280° C., vaporizer temperature 400° C., shealth gas 60 arbitrary unit, Aux gas 40 arbitrary units, S-lens 113 and collision gas 0.16 Pascals. […] (SRM) chromatograms of triolein (Q1: 902.9>Q3:602.3) and internal standard (Q1: 902.9>Q3:602.3) were collected for 40 sec. The peak area was integrated by Xcalibur Quan software. The ratio between the triolein generated in the reaction and spiked in internal standard were used to generate percentage inhibition and IC50 values. Compound percentage inhibition was calculated by the following formula: Inhibition %=1−[(compound response−low control)/(high control−low control)]×100%. Potent compounds were titrated and IC50 were calculated by 4 parameter sigmoidal curve fitting formula.
# DGAT2 Enzymatic Activity Assay
# DGAT2 activity was determined by measuring the amount of enzymatic product triolein (1,2,3-Tri(cis-9-octadecenoyl)glycerol) using the membrane prep mentioned above. The assay was carried out in deep well 384 plates in a final volume of 40 μL at room temperature. The assay mixture contained the following: assay buffer (100 mM Tris·Cl, pH 7.0, 20 mM MgCl2, 5% ethanol), 25 μM of diolein, 10 μM of oleoyl-CoA and 10 ng/μL of DGAT2 membrane.
# Sequence of hDGAT2 (Q96PD7 whole entry): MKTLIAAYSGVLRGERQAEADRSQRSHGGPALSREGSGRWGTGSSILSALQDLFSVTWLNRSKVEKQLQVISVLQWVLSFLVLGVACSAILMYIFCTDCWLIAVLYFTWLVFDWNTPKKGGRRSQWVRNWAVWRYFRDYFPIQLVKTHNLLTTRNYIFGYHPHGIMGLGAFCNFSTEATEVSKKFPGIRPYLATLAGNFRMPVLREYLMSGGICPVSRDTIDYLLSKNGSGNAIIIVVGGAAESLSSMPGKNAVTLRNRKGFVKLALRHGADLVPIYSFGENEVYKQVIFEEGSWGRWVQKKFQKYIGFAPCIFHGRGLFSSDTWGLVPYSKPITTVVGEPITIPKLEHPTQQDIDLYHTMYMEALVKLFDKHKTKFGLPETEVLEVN
row,SMILES,IC50 [nM]
1,"CC(C)(C)NC(=O)N1CCc2c(-c3cccc(OC(F)(F)F)c3)ccc(CNC(=O)c3cc(C(F)(F)F)n[nH]3)c2C1 [Example 2, N-(tert-butyl)-5-(3-(trifluoromethoxy)phenyl)-8-((3-(trifluoromethyl)-1H-pyrazole-5-carboxamido)methyl)-3,4-dihydroisoquinoline-2(1H)-carboxamide]",104
2,"CC(C)(C)NC(=O)N1CCc2c(-c3cccc(C(F)(F)F)c3)ccc(C(=O)NCc3ccnc4ccccc34)c2C1 [Example 26, N^2-(tert-butyl)-N^8-(quinolin-4-ylmethyl)-5-(3-(trifluoromethyl)phenyl)-3,4-dihydroisoquinoline-2,8(1H)-dicarboxamide]",292
3,"Cc1nc(C)c(CNC(=O)c2ccc(-c3cccc(C(F)(F)F)c3)c3c2CN(C(=O)NC(C)(C)C)CC3)s1 [Example 41, N^2-(tert-butyl)-N^8-((2,4-dimethylthiazol-5-yl)methyl)-5-(3-(trifluoromethyl)phenyl)-3,4-dihydroisoquinoline-2,8(1H)-dicarboxamide]",907
4,"CC(C)(C)NC(=O)N1CCc2c(-c3cccc(C(F)(F)F)c3)ccc(C(=O)N[C@H]3C[C@@H]3c3ccccc3)c2C1 (relative stereo) [Example 65, N^2-(tert-butyl)-N^8-((trans)-2-phenylcyclopropyl)-5-(3-(trifluoromethyl)phenyl)-3,4-dihydroisoquinoline-2,8(1H)-dicarboxamide]",1020
5,"CC(C)(C)NC(=O)N1CCc2c(-c3cccc(C(F)(F)F)c3)ccc(C(=O)NCCn3cncn3)c2C1 [Example 48, N^8-(2-(1H-1,2,4-triazol-1-yl)ethyl)-N^2-(tert-butyl)-5-(3-(trifluoromethyl)phenyl)-3,4-dihydroisoquinoline-2,8(1H)-dicarboxamide]",1410
6,"CC(C)(C)NC(=O)N1CCc2c(-c3cccc(C(F)(F)F)c3)ccc(C(=O)NCCc3nc4cc(Cl)c(Cl)cc4[nH]3)c2C1 [Example 7, N^2-(tert-butyl)-N^8-(2-(5,6-dichloro-1H-benzo[d]imidazol-2-yl)ethyl)-5-(3-(trifluoromethyl)phenyl)-3,4-dihydroisoquinoline-2,8(1H)-dicarboxamide]",15.9
7,"Cc1ccc2[nH]c(CCNC(=O)c3ccc(-c4cccc(C(F)(F)F)c4)c4c3CN(C(=O)NC(C)(C)C)CC4)nc2c1 [Example 14, N^2-(tert-butyl)-N^8-(2-(5-methyl-1H-benzo[d]imidazol-2-yl)ethyl)-5-(3-(trifluoromethyl)phenyl)-3,4-dihydroisoquinoline-2,8(1H)-dicarboxamide]",103
8,"Cc1cc(C)n(CCNC(=O)c2ccc(-c3cccc(C(F)(F)F)c3)c3c2CN(C(=O)NC(C)(C)C)CC3)n1 [Example 31, N^2-(tert-butyl)-N^8-(2-(3,5-dimethyl-1H-pyrazol-1-yl)ethyl)-5-(3-(trifluoromethyl)phenyl)-3,4-dihydroisoquinoline-2,8(1H)-dicarboxamide]",505
9,"CC(NC(=O)c1ccc(-c2cccc(C(F)(F)F)c2)c2c1CN(C(=O)NC(C)(C)C)CC2)c1nncs1 (stereo not shown) [Example 72, N^8-(1-(1,3,4-thiadiazol-2-yl)ethyl)-N^2-(tert-butyl)-5-(3-(trifluoromethyl)phenyl)-3,4-dihydroisoquinoline-2,8(1H)-dicarboxamide]",659
10,"CC(C)(C)NC(=O)N1CCc2c(-c3cccc(C(F)(F)F)c3)ccc(C(=O)NCCn3nnc4ccccc43)c2C1 [Example 34, N^8-(2-(1H-benzo[d][1,2,3]triazol-1-yl)ethyl)-N^2-(tert-butyl)-5-(3-(trifluoromethyl)phenyl)-3,4-dihydroisoquinoline-2,8(1H)-dicarboxamide]",664
11,"Cc1nnc(CCNC(=O)c2ccc(-c3cccc(C(F)(F)F)c3)c3c2CN(C(=O)NC(C)(C)C)CC3)[nH]1 [Example 47, N^2-(tert-butyl)-N^8-(2-(5-methyl-4H-1,2,4-triazol-3-yl)ethyl)-5-(3-(trifluoromethyl)phenyl)-3,4-dihydroisoquinoline-2,8(1H)-dicarboxamide]",1200
12,"CC(C)(C)NC(=O)N1CCc2c(-c3cccc(C(F)(F)F)c3)ccc(C(=O)NCCN3CCCc4ccccc43)c2C1 [Example 43, N^2-(tert-butyl)-N^8-(2-(3,4-dihydroquinolin-1(2H)-yl)ethyl)-5-(3-(trifluoromethyl)phenyl)-3,4-dihydroisoquinoline-2,8(1H)-dicarboxamide]",1140
13,"Cc1nonc1CNC(=O)c1ccc(-c2cccc(C(F)(F)F)c2)c2c1CN(C(=O)NC(C)(C)C)CC2 [Example 67, N^2-(tert-butyl)-N^8-((4-methyl-1,2,5-oxadiazol-3-yl)methyl)-5-(3-(trifluoromethyl)phenyl)-3,4-dihydroisoquinoline-2,8(1H)-dicarboxamide]",244
14,"CC(C)(C)NC(=O)N1CCc2c(-c3cccc(C(F)(F)F)c3)ccc(C(=O)NCCc3cnc4ccccn34)c2C1 [Example 54, N^2-(tert-butyl)-N^8-(2-(imidazo[1,2-a]pyridin-3-yl)ethyl)-5-(3-(trifluoromethyl)phenyl)-3,4-dihydroisoquinoline-2,8(1H)-dicarboxamide]",3720

# Now from value to compound:
row,IC50 [nM],SMILES
1,1180,"CC(CNC(=O)c1ccc(-c2cccc(OC(F)(F)F)c2)c2c1CN(C(=O)NC(C)(C)C)CC2)c1cccnc1 (stereo not shown) [Example 78, N^2-(tert-butyl)-N^8-(2-(pyridin-3-yl)propyl)-5-(3-(trifluoromethoxy)phenyl)-3,4-dihydroisoquinoline-2,8(1H)-dicarboxamide]"
2,1540,"CC(C)(C)NC(=O)N1CCc2c(-c3cccc(OC(F)(F)F)c3)ccc(C(=O)NCc3cn4ccsc4n3)c2C1 [Example 74, N^2-(tert-butyl)-N^8-(imidazo[2,1-b]thiazol-6-ylmethyl)-5-(3-(trifluoromethoxy)phenyl)-3,4-dihydroisoquinoline-2,8(1H)-dicarboxamide]"
3,1200,"CC(CNC(=O)c1ccc(-c2cccc(C(F)(F)F)c2)c2c1CN(C(=O)NC(C)(C)C)CC2)n1cccn1 (stereo not shown) [Example 44, N^8-(2-(1H-pyrazol-1-yl)propyl)-N^2-(tert-butyl)-5-(3-(trifluoromethyl)phenyl)-3,4-dihydroisoquinoline-2,8(1H)-dicarboxamide]"
4,524,"CC(C)(C)NC(=O)N1CCc2c(-c3cccc(OC(F)(F)F)c3)ccc(C(=O)NCc3cc(-c4ccccn4)no3)c2C1 [Example 80, N^2-(tert-butyl)-N^8-((3-(pyridin-2-yl)isoxazol-5-yl)methyl)-5-(3-(trifluoromethoxy)phenyl)-3,4-dihydroisoquinoline-2,8(1H)-dicarboxamide]"
5,2150,"CC(C)(C)NC(=O)N1CCc2c(-c3cccc(OC(F)(F)F)c3)ccc(C(=O)NCc3cn4cccnc4n3)c2C1 [Example 55, N^2-(tert-butyl)-N^8-(imidazo[1,2-a]pyrimidin-2-ylmethyl)-5-(3-(trifluoromethoxy)phenyl)-3,4-dihydroisoquinoline-2,8(1H)-dicarboxamide]"
6,235,"CC(C)(C)NC(=O)N1CCc2c(-c3cccc(OC(F)(F)F)c3)ccc(C(=O)NCc3nccc4ccccc34)c2C1 [Example 22, N^2-(tert-butyl)-N^8-(isoquinolin-1-ylmethyl)-5-(3-(trifluoromethoxy)phenyl)-3,4-dihydroisoquinoline-2,8(1H)-dicarboxamide]"
7,149,"CC(C)(C)NC(=O)N1CCc2c(-c3cccc(OC(F)(F)F)c3)ccc(C(=O)NCc3cccc4ccnn34)c2C1 [Example 79, N^2-(tert-butyl)-N^8-(pyrazolo[1,5-a]pyridin-7-ylmethyl)-5-(3-(trifluoromethoxy)phenyl)-3,4-dihydroisoquinoline-2,8(1H)-dicarboxamide]"
8,867,"CC(CNC(=O)c1ccc(-c2cccc(OC(F)(F)F)c2)c2c1CN(C(=O)NC(C)(C)C)CC2)c1cnco1 (stereo not shown) [Example 77, N^2-(tert-butyl)-N^8-(2-(oxazol-5-yl)propyl)-5-(3-(trifluoromethoxy)phenyl)-3,4-dihydroisoquinoline-2,8(1H)-dicarboxamide]"

# Reference: patent US9877957B2, “Tetrahydroisoquinoline derivatives useful as inhibitors of diacylglyceride O-acyltransferase 2” (Merck Sharp & Dohme Corp., priority 2014, dated 2018)
